Source: US11464770B2, “Anticancer pharmaceutical composition” (NATIONAL CANCER CENTER, priority 2016, dated 2022)
Read-outs that look alike come from different tables or passages of the source.

Columns and labels:
[1] = system: blood cancer cell lines (e.g. HL-60, Jurkat, Raji, Ramos, Daudi, MOLT-4); assay: Cell based assay, cell viability (CellTiter-Glo), blood cancer cell lines; conditions: Homo sapiens
Procedure, shortened: (§1)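 Plated cells (24 h) → compound to 0–2 μM final → 72 h → CellTiter-Glo ATP luminescence.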

[2] = system: ovarian cancer cell lines; assay: Cell based assay, cell viability (CellTiter-Glo), ovarian cancer cell lines; conditions: Homo sapiens; OVCAR-3 cells
Procedure, shortened: as §1

[3] = system: RT4: human urinary bladder transitional cell papilloma; assay: Cell based assay, cytotoxicity in RT4 papilloma cells (selectivity); conditions: Homo sapiens, RT-4; RT4 cells
[4] = system: cervical carcinoma cell lines; assay: Cell based assay, cell viability (CellTiter-Glo), cervical carcinoma cell lines; conditions: Homo sapiens; HeLa cells
[5] = system: lung cancer cell lines (e.g. NCI-H23, NCI-H1229); assay: Cell based assay, cell viability (CellTiter-Glo), lung cancer cell lines; conditions: Homo sapiens, 72 hours treatment, CellTiter-Glo
Procedure, shortened: as §1

[6] = system: melanoma cell lines; assay: Cell based assay, cell viability (CellTiter-Glo), melanoma cell lines; conditions: Homo sapiens; LOX-IMVI cell line
Procedure, shortened: as §1

[7] = MV4-11, blood cancer cell line MV-4-11, 72 hours, read-out: IC50, MV-4-11
[8] = blood cancer cell line Daudi, 72 hours, read-out: IC50, Daudi
[9] = blood cancer cell line HL-60, 72 hours, read-out: IC50, HL-60
[10] = blood cancer cell line Jurkat, 72 hours, read-out: IC50, Jurkat
[11] = blood cancer cell line MOLT-4, 72 hours, read-out: IC50, MOLT-4
[12] = blood cancer cell line Raji, 72 hours, read-out: IC50, Raji
[13] = blood cancer cell line Ramos (RA 1), 72 hours, read-out: IC50, Ramos (RA 1)
[14] = blood cancer cell line U-937, 72 hours, read-out: IC50, U-937
[15] = A549 cells, read-out: IC50, lung cancer cell line A549
[16] = DMS 114 cells, read-out: IC50, lung cancer cell line DMS 114
[17] = NCI-H23 cells, read-out: IC50, lung cancer cell line NCI-H23
[18] = NCI-H460 cells, read-out: IC50, lung cancer cell line NCI-H460
[19] = NCI-H522 cells, read-out: IC50, lung cancer cell line NCI-H522
[20] = NCI-H1299 cells, read-out: IC50, lung cancer cell line NCI-H1299
[21] = NCI-H1437 cells, read-out: IC50, lung cancer cell line NCI-H1437

SMILES: COc1cc(S(F)(F)(F)(F)F)ccc1C[S+]([O-])c1[nH]c2c(Br)ccc(Cl)c2c(=O)c1C(C)=O (centres unmarked) [Compound 75, 3-acetyl-8-bromo-5-chloro-2-((2-methoxy-4-(pentafluoro--sulfanyl)benzyl)sulfinyl)quinolin-4(1H)-one]
- IC50 [1, 7]: > 2 µM
- IC50 [1, 8]: 1.26 µM
- IC50 [1, 9]: > 2 µM
- IC50 [1, 10]: 1.09 µM
- IC50 [1, 11]: 1.28 µM
- IC50 [1, 12]: 1.16 µM
- IC50 [1, 13]: > 2 µM
- IC50 [1, 14]: > 2 µM
- IC50 [2]: 1.36 µM
- IC50 [3]: > 10 µM
- IC50 [4]: > 10 µM
- IC50 [5, 15]: 1.7 µM
- IC50 [5, 16]: > 2 µM
- IC50 ([5]; MRC-5 cells, read-out: IC50): 1.09 µM
- IC50 [5, 17]: 1.19 µM
- IC50 [5, 18]: 1.73 µM
- IC50 [5, 19]: > 2 µM
- IC50 [5, 20]: 1.06 µM
- IC50 [5, 21]: > 10 µM
- IC50 [6]: 1.04 µM

SMILES: CC(=O)c1c([S+]([O-])Cc2cccnc2)[nH]c2c(Br)ccc(Cl)c2c1=O (centres unmarked) [Compound 84, 3-acetyl-8-bromo-5-chloro-2-((pyridin-3-ylmethyl)sulfinyl)quinolin-4(1H)-one]
- IC50 [1, 7]: 0.82 µM
- IC50 [1, 8]: 1.12 µM
- IC50 [1, 9]: 1.48 µM
- IC50 [1, 10]: 0.98 µM
- IC50 [1, 11]: 0.97 µM
- IC50 [1, 12]: 1.5 µM
- IC50 [1, 13]: 1 µM
- IC50 [1, 14]: 1.48 µM
- IC50 [2]: 0.59 µM
- IC50 [3]: > 10 µM
- IC50 [4]: > 10 µM
- IC50 [5, 15]: > 2 µM
- IC50 [5, 16]: > 2 µM
- IC50 ([5]; MRC-5 cells, read-out: IC50): 1.29 µM
- IC50 [5, 17]: 0.86 µM
- IC50 [5, 18]: 1.48 µM
- IC50 [5, 19]: 1.35 µM
- IC50 [5, 20]: 1.05 µM
- IC50 [5, 21]: > 10 µM
- IC50 [6]: 1.45 µM

SMILES: CC(=O)c1c([S+]([O-])Cc2ccc(C#N)cc2)[nH]c2c(Br)ccc(Cl)c2c1=O (centres unmarked) [Compound 73, 4-(((3-acetyl-8-bromo-5-chloro-4-oxo-1,4-dihydroquinolin-2-yl)sulfinyl)methyl)benzonitrile]
- IC50 [1, 7]: 1.31 µM
- IC50 [1, 8]: > 2 µM
- IC50 [1, 9]: 1.6 µM
- IC50 [1, 10]: > 2 µM
- IC50 [1, 11]: > 2 µM
- IC50 [1, 12]: > 2 µM
- IC50 [1, 13]: > 2 µM
- IC50 [1, 14]: > 2 µM
- IC50 [2]: 1.11 µM
- IC50 [3]: > 10 µM
- IC50 [4]: > 10 µM
- IC50 [5, 15]: > 2 µM
- IC50 [5, 16]: > 2 µM
- IC50 ([5]; MRC-5 cells, read-out: IC50): > 2 µM
- IC50 [5, 17]: 1.52 µM
- IC50 [5, 18]: > 2 µM
- IC50 [5, 19]: > 2 µM
- IC50 [5, 20]: > 2 µM
- IC50 [5, 21]: > 10 µM
- IC50 [6]: 1.67 µM

SMILES: CC(=O)c1c([S+]([O-])Cc2ccc(F)c(Cl)c2)[nH]c2c(Br)ccc(Cl)c2c1=O (centres unmarked) [Compound 31, 3-acetyl-8-bromo-5-chloro-2-((3-chloro-4-fluorobenzyl)sulfinyl)quinolin-4(1H)-one]
- IC50 [1, 7]: > 2 µM
- IC50 [1, 8]: 1.65 µM
- IC50 [1, 9]: 1.93 µM
- IC50 [1, 10]: 0.94 µM
- IC50 [1, 11]: 1.35 µM
- IC50 [1, 12]: 1.1 µM
- IC50 [1, 13]: 1.83 µM
- IC50 [1, 14]: > 2 µM
- IC50 [2]: 0.71 µM
- IC50 [3]: > 10 µM
- IC50 [4]: > 10 µM
- IC50 [5, 15]: 1.72 µM
- IC50 [5, 16]: > 2 µM
- IC50 ([5]; MRC-5 cells, read-out: IC50): > 2 µM
- IC50 [5, 17]: 0.81 µM
- IC50 [5, 18]: 1.42 µM
- IC50 [5, 19]: > 2 µM
- IC50 [5, 20]: 1.22 µM
- IC50 [5, 21]: > 10 µM
- IC50 [6]: 1.11 µM

SMILES: CC(=O)c1c([S+]([O-])Cc2cc(F)cc(S(F)(F)(F)(F)F)c2)[nH]c2c(Br)ccc(Cl)c2c1=O (centres unmarked) [Compound 76, 3-acetyl-8-bromo-5-chloro-2-((3-fluoro-5-(pentafluoro--sulfanyl)benzyl)sulfinyl)quinolin-4(1H)-one]
- IC50 [1, 7]: > 2 µM
- IC50 [1, 8]: 1.66 µM
- IC50 [1, 9]: > 2 µM
- IC50 [1, 10]: 1.2 µM
- IC50 [1, 11]: 1.62 µM
- IC50 [1, 12]: 1.35 µM
- IC50 [1, 13]: > 2 µM
- IC50 [1, 14]: > 2 µM
- IC50 [2]: 1.46 µM
- IC50 [3]: > 10 µM
- IC50 [4]: > 10 µM
- IC50 [5, 15]: > 2 µM
- IC50 [5, 16]: > 2 µM
- IC50 ([5]; MRC-5 cells, read-out: IC50): 1.57 µM
- IC50 [5, 17]: 1.22 µM
- IC50 [5, 18]: > 2 µM
- IC50 [5, 19]: > 2 µM
- IC50 [5, 20]: 1.67 µM
- IC50 [5, 21]: > 10 µM
- IC50 [6]: 1.37 µM

SMILES: CC(=O)c1c([S+]([O-])Cc2cc(Cl)ccc2Cl)[nH]c2c(Br)ccc(Cl)c2c1=O (centres unmarked) [Compound 44, 3-acetyl-8-bromo-5-chloro-2-((2,5-dichlorobenzyl)sulfinyl)quinolin-4(1H)-one]
- IC50 [1, 7]: 1.98 µM
- IC50 [1, 8]: 1.8 µM
- IC50 [1, 9]: 1.73 µM
- IC50 [1, 10]: 1.13 µM
- IC50 [1, 11]: 1.47 µM
- IC50 [1, 12]: 1.16 µM
- IC50 [1, 13]: 1.93 µM
- IC50 [1, 14]: > 2 µM
- IC50 [2]: 0.84 µM
- IC50 [3]: > 10 µM
- IC50 [4]: > 10 µM
- IC50 [5, 15]: 1.87 µM
- IC50 [5, 16]: > 2 µM
- IC50 ([5]; MRC-5 cells, read-out: IC50): 0.96 µM
- IC50 [5, 17]: 0.96 µM
- IC50 [5, 18]: 1.75 µM
- IC50 [5, 19]: > 2 µM
- IC50 [5, 20]: 1.28 µM
- IC50 [5, 21]: > 10 µM
- IC50 [6]: 1.64 µM

SMILES: CC(=O)c1c(S(=O)(=O)Cc2ccccc2)[nH]c2c(Br)ccc(Cl)c2c1=O [Compound 34, 3-acetyl-2-(benzylsulfonyl)-8-bromo-5-chloroquinolin-4(1H)-one]
- IC50 [1, 7]: > 2 µM
- IC50 [1, 8]: > 2 µM
- IC50 [1, 9]: > 2 µM
- IC50 [1, 10]: > 2 µM
- IC50 [1, 11]: > 2 µM
- IC50 [1, 12]: > 2 µM
- IC50 [1, 13]: > 2 µM
- IC50 [1, 14]: > 2 µM
- IC50 [2]: 0.99 µM
- IC50 [3]: > 10 µM
- IC50 [4]: > 10 µM
- IC50 [5, 15]: > 2 µM
- IC50 [5, 16]: > 2 µM
- IC50 ([5]; MRC-5 cells, read-out: IC50): > 2 µM
- IC50 [5, 17]: 1.39 µM
- IC50 [5, 18]: > 2 µM
- IC50 [5, 19]: > 2 µM
- IC50 [5, 20]: 2 µM
- IC50 [5, 21]: > 10 µM
- IC50 [6]: 1.63 µM
